Measured values published in patent EP3262942A1, “SELENODIARYLS FOR USE AS MICROBICIDE OR AS MEDICINE” (Evonik Degussa GmbH, priority 2016, dated 2018).

Experiments:
P. infestans = assay: microbe, parasite or virus in culture; format: cell-based, Phytophthora infestans; details: for inhibition of growth at 5 µg/mL / inhibition of growth at 10 µg/mL / inhibition of growth at 25 µg/mL / inhibition of growth at 50 µg/mL: Phytophthora infestans, 24 h, read-out: Aktivität gegenüber P. infestans
Penicillium notatum = assay: Growth test in microtiter plates, HA medium, 24 h, visual evaluation; format: cell-based; set-up: key: +: kein Wachstum im Vergleich zur Wachstumskontrolle; -: Wachstum wie Wachstumskontrolle
[1] = tested on: alle getesteten Pathogene; format: cell-based; details: 5-50 µg/mL
M. grisea CM = assay: microbe, parasite or virus in culture; format: cell-based, Magnaporthe grisea; details: for inhibition of growth at 5 µg/mL / inhibition of growth at 10 µg/mL / inhibition of growth at 25 µg/mL / inhibition of growth at 50 µg/mL: Pyricularia grisea, 24 h, read-out: Aktivität gegenüber M. grisea CM
M. grisea H2O = assay: microbe, parasite or virus in culture; format: cell-based, Magnaporthe grisea; details: for inhibition of growth at 5 µg/mL / inhibition of growth at 10 µg/mL / inhibition of growth at 25 µg/mL / inhibition of growth at 50 µg/mL: Pyricularia grisea, H2O, 24 h, read-out: Aktivität gegenüber M. grisea H2O
Mucor miehei = assay: Growth test in microtiter plates, HA medium, 24 h, visual evaluation; format: cell-based; set-up: key to Aktivität gegenüber M. miehei: +: kein Wachstum im Vergleich zur Wachstumskontrolle; -: Wachstum wie Wachstumskontrolle
Candida albicans = assay: as above; format: cell-based; set-up: key: +: kein Wachstum im Vergleich zur Wachstumskontrolle; -: Wachstum wie Wachstumskontrolle
Botrytis cinerea = assay: microbe, parasite or virus in culture; format: cell-based; details: for inhibition of growth at 5 µg/mL / inhibition of growth at 10 µg/mL / inhibition of growth at 25 µg/mL / inhibition of growth at 50 µg/mL: Botrytis cinerea, 24 h, read-out: Aktivität gegenüber B. cinerea
Paecilomyces variotii = assay: Growth test in microtiter plates, HA medium, 24 h, visual evaluation; format: cell-based; set-up: key: +: kein Wachstum im Vergleich zur Wachstumskontrolle; -: Wachstum wie Wachstumskontrolle
Lepidium sativum = assay: Crop plant growth test, seeds on filter discs, 4 days, visual evaluation; format: in vivo
Method: (§1) Testsubstanzen und Kontrollen werden auf Filterrondellen in Mikrotiterplatten (48 well) vorgelegt und das verwendete Lösungsmittel (DMSO) über Lyophilisation entfernt. Anschließend werden ca. 12 Samen pro Vertiefung (Setaria italical Lepidium sativum) zugeben, mit 200 µl sterilem Leitungswasser pro Vertiefung versetzt, mit einem Deckel versehen und in einer feuchten Kammer für 4 Tage im Pflanzenbrutschrank inkubiert (16h-Licht-8h-Dunkel-Rhythmus). Die Auswertung des Tests erfolgt optisch (+: mind. 75 % Wachstumshemmung im Vergleich zur Kontrolle, -: weniger als 75 % Wachstumshemmung im Vergleich zur Kontrolle.

Setaria italica = assay: as above; format: in vivo
Method: as §1

Q: Which inhibition of growth at 5 µg/mL (P. infestans) does the source give for `CC(C)(C)c1cc([Se]c2cc(C(C)(C)C)cc(C(C)(C)C)c2O)c(O)c(C(C)(C)C)c1` [Verbindung 14, Bis(3,5-di-tert-butyl-2-hydroxyphenyl)selen] here?
A: 0 to 25%

Q: What about the inhibition of growth at 10 µg/mL (P. infestans) of the same compound?
A: 0 to 25%

Q: And the inhibition of growth at 25 µg/mL (P. infestans)?
A: 0 to 25%

Q: What about the inhibition of growth at 50 µg/mL (P. infestans) of the same compound?
A: 0 to 25%

Q: And the “Aktivität gegenüber P. notatum” value (Penicillium notatum; 10µg/mL)?
A: -

Q: And the “Aktivität gegenüber P. notatum” value (Penicillium notatum; 50µg/mL)?
A: -

Q: And the “Aktivität im Wachstums- und Keimungshemmungstest gegen die getesteten Pathogene” value [1]?
A: weder im Wachstums- noch im Keimungshemmungstest im verwendeten Konzentrationsbereich eine entsprechende Aktivität

Q: What about the inhibition of growth at 5 µg/mL (M. grisea CM) of the same compound?
A: 0 to 25%

Q: And the inhibition of growth at 10 µg/mL (M. grisea CM)?
A: 0 to 25%

Q: What about the inhibition of growth at 25 µg/mL (M. grisea CM) of the same compound?
A: 0 to 25%

Q: And the inhibition of growth at 50 µg/mL (M. grisea CM)?
A: 0 to 25%

Q: And the inhibition of growth at 5 µg/mL (M. grisea H2O)?
A: 0 to 25%

Q: And the inhibition of growth at 10 µg/mL (M. grisea H2O)?
A: 0 to 25%

Q: What about the inhibition of growth at 25 µg/mL (M. grisea H2O) of the same compound?
A: 0 to 25%

Q: What about the inhibition of growth at 50 µg/mL (M. grisea H2O) of the same compound?
A: 0 to 25%

Q: What about the “Aktivität gegenüber M. miehei” value (Mucor miehei; 10µg/mL) of the same compound?
A: -

Q: And the “Aktivität gegenüber M. miehei” value (Mucor miehei; 50µg/mL)?
A: -

Q: What about the “Aktivität gegenüber C. albicans” value (Candida albicans; 10µg/mL) of the same compound?
A: -

Q: What about the “Aktivität gegenüber C. albicans” value (Candida albicans; 50µg/mL) of the same compound?
A: -

Q: And the inhibition of growth at 5 µg/mL (Botrytis cinerea; 5µg/mL)?
A: 0 to 25%

Q: And the inhibition of growth at 10 µg/mL (Botrytis cinerea; 10µg/mL)?
A: 0 to 25%

Q: And the inhibition of growth at 25 µg/mL (Botrytis cinerea; 25µg/mL)?
A: 0 to 25%

Q: What about the inhibition of growth at 50 µg/mL (Botrytis cinerea; 50µg/mL) of the same compound?
A: 0 to 25%

Q: What about the “Aktivität gegenüber P. variotii” value (Paecilomyces variotii; 10µg/mL) of the same compound?
A: -

Q: And the “Aktivität gegenüber P. variotii” value (Paecilomyces variotii; 50µg/mL)?
A: -

Q: What about the “Aktivität gegenüber Nutzpflanzen: L. sativum” value (Lepidium sativum; 10µg/R) of the same compound?
A: - (weniger als 75 % Wachstumshemmung im Vergleich zur Kontrolle)

Q: And the “Aktivität gegenüber Nutzpflanzen: L. sativum” value (Lepidium sativum; 20µg/R)?
A: - (weniger als 75 % Wachstumshemmung im Vergleich zur Kontrolle)

Q: And the “Aktivität gegenüber Nutzpflanzen: L. sativum” value (Lepidium sativum; 50µg/R)?
A: - (weniger als 75 % Wachstumshemmung im Vergleich zur Kontrolle)

Q: And the “Aktivität gegenüber Nutzpflanzen: S. italica” value (Setaria italica; 10µg/R)?
A: - (weniger als 75 % Wachstumshemmung im Vergleich zur Kontrolle)

Q: What about the “Aktivität gegenüber Nutzpflanzen: S. italica” value (Setaria italica; 20µg/R) of the same compound?
A: - (weniger als 75 % Wachstumshemmung im Vergleich zur Kontrolle)

Q: And the “Aktivität gegenüber Nutzpflanzen: S. italica” value (Setaria italica; 50µg/R)?
A: - (weniger als 75 % Wachstumshemmung im Vergleich zur Kontrolle)

Q: What does the source list for `COc1cc(C)c([Se]c2c(C)cc(OC)c(OC)c2OC)c(OC)c1OC` [Verbindung 28, Bis(6-methyl-2,3,4-trimethoxyphenyl)selen]?
A: Aktivität gegenüber P. infestans (P. infestans; 5µg/mL): - (zwischen 0 und 25 % der Sporen nicht gekeimt); Aktivität gegenüber P. infestans (P. infestans; 10µg/mL): - (zwischen 0 und 25 % der Sporen nicht gekeimt); Aktivität gegenüber P. infestans (P. infestans; 25µg/mL): - (zwischen 0 und 25 % der Sporen nicht gekeimt); Aktivität gegenüber P. infestans (P. infestans; 50µg/mL): - (zwischen 0 und 25 % der Sporen nicht gekeimt); Wirksamkeit gegenüber P. infestans (P. infestans; […]): keine Wirkung; Aktivität gegenüber P. notatum (Penicillium notatum; 10µg/mL): -; Aktivität gegenüber P. notatum (Penicillium notatum; 50µg/mL): -; Aktivität gegenüber M. grisea CM (M. grisea CM; 5µg/mL): +++ (mehr als 75 % der Sporen nicht gekeimt); Aktivität gegenüber M. grisea CM (M. grisea CM; 10µg/mL): +++ (mehr als 75 % der Sporen nicht gekeimt); Aktivität gegenüber M. grisea CM (M. grisea CM; 25µg/mL): +++ (mehr als 75 % der Sporen nicht gekeimt); Aktivität gegenüber M. grisea CM (M. grisea CM; 50µg/mL): +++ (mehr als 75 % der Sporen nicht gekeimt); Aktivität gegenüber M. grisea H2O (M. grisea H2O; 5µg/mL): +++ (mehr als 75 % der Sporen nicht gekeimt); Aktivität gegenüber M. grisea H2O (M. grisea H2O; 10µg/mL): +++ (mehr als 75 % der Sporen nicht gekeimt); Aktivität gegenüber M. grisea H2O (M. grisea H2O; 25µg/mL): +++ (mehr als 75 % der Sporen nicht gekeimt); Aktivität gegenüber M. grisea H2O (M. grisea H2O; 50µg/mL): +++ (mehr als 75 % der Sporen nicht gekeimt); Aktivität gegenüber M. miehei (Mucor miehei; 10µg/mL): -; Aktivität gegenüber M. miehei (Mucor miehei; 50µg/mL): -; Aktivität gegenüber C. albicans (Candida albicans; 10µg/mL): -; Aktivität gegenüber C. albicans (Candida albicans; 50µg/mL): -; Aktivität gegenüber B. cinerea (Botrytis cinerea; 5µg/mL): - (key: +++: mehr als 75 % der Sporen nicht gekeimt; ++: zwischen 50 und 75 % der Sporen nicht gekeimt; +: zwischen 25 und 50 % der Sporen nicht gekeimt; -: zwischen 0 und 25 % der Sporen nicht gekeimt); Aktivität gegenüber B. cinerea (Botrytis cinerea; 10µg/mL): - (key: +++: mehr als 75 % der Sporen nicht gekeimt; ++: zwischen 50 und 75 % der Sporen nicht gekeimt; +: zwischen 25 und 50 % der Sporen nicht gekeimt; -: zwischen 0 und 25 % der Sporen nicht gekeimt); Aktivität gegenüber B. cinerea (Botrytis cinerea; 25µg/mL): - (key: +++: mehr als 75 % der Sporen nicht gekeimt; ++: zwischen 50 und 75 % der Sporen nicht gekeimt; +: zwischen 25 und 50 % der Sporen nicht gekeimt; -: zwischen 0 und 25 % der Sporen nicht gekeimt); Aktivität gegenüber B. cinerea (Botrytis cinerea; 50µg/mL): - (key: +++: mehr als 75 % der Sporen nicht gekeimt; ++: zwischen 50 und 75 % der Sporen nicht gekeimt; +: zwischen 25 und 50 % der Sporen nicht gekeimt; -: zwischen 0 und 25 % der Sporen nicht gekeimt); Aktivität gegenüber P. variotii (Paecilomyces variotii; 10µg/mL): -; Aktivität gegenüber P. variotii (Paecilomyces variotii; 50µg/mL): -; Aktivität gegenüber Nutzpflanzen: L. sativum (Lepidium sativum; 10µg/R): - (weniger als 75 % Wachstumshemmung im Vergleich zur Kontrolle); Aktivität gegenüber Nutzpflanzen: L. sativum (Lepidium sativum; 20µg/R): - (weniger als 75 % Wachstumshemmung im Vergleich zur Kontrolle); Aktivität gegenüber Nutzpflanzen: L. sativum (Lepidium sativum; 50µg/R): - (weniger als 75 % Wachstumshemmung im Vergleich zur Kontrolle); Aktivität gegenüber Nutzpflanzen: S. italica (Setaria italica; 10µg/R): - (weniger als 75 % Wachstumshemmung im Vergleich zur Kontrolle); Aktivität gegenüber Nutzpflanzen: S. italica (Setaria italica; 20µg/R): - (weniger als 75 % Wachstumshemmung im Vergleich zur Kontrolle); Aktivität gegenüber Nutzpflanzen: S. italica (Setaria italica; 50µg/R): + (mind. 75 % Wachstumshemmung im Vergleich zur Kontrolle)

Q: Which inhibition of growth at 5 µg/mL (P. infestans) does the source give for `Cc1cc(C)c(O)c([Se]c2c(C)c(C)cc(C)c2O)c1C` [Verbindung 17, Bis(2-hydroxy-3,5,6-trimethylphenyl)selen] here?
A: 0 to 25%

Q: And the inhibition of growth at 10 µg/mL (P. infestans)?
A: 25 to 50%

Q: What about the inhibition of growth at 25 µg/mL (P. infestans) of the same compound?
A: 25 to 50%

Q: What about the inhibition of growth at 50 µg/mL (P. infestans) of the same compound?
A: 25 to 50%

Q: What about the “Aktivität gegenüber P. notatum” value (Penicillium notatum; 10µg/mL) of the same compound?
A: -

Q: And the “Aktivität gegenüber P. notatum” value (Penicillium notatum; 50µg/mL)?
A: -

Q: And the inhibition of growth at 5 µg/mL (M. grisea CM)?
A: 0 to 25%

Q: What about the inhibition of growth at 10 µg/mL (M. grisea CM) of the same compound?
A: 0 to 25%

Q: What about the inhibition of growth at 25 µg/mL (M. grisea CM) of the same compound?
A: 50 to 75%

Q: And the inhibition of growth at 50 µg/mL (M. grisea CM)?
A: 50 to 75%

Q: What about the inhibition of growth at 5 µg/mL (M. grisea H2O) of the same compound?
A: 0 to 25%

Q: What about the inhibition of growth at 10 µg/mL (M. grisea H2O) of the same compound?
A: 0 to 25%

Q: And the inhibition of growth at 25 µg/mL (M. grisea H2O)?
A: 0 to 25%

Q: What about the inhibition of growth at 50 µg/mL (M. grisea H2O) of the same compound?
A: 0 to 25%

Q: What about the “Aktivität gegenüber M. miehei” value (Mucor miehei; 10µg/mL) of the same compound?
A: -

Q: What about the “Aktivität gegenüber M. miehei” value (Mucor miehei; 50µg/mL) of the same compound?
A: -

Q: And the “Aktivität gegenüber C. albicans” value (Candida albicans; 10µg/mL)?
A: -

Q: What about the “Aktivität gegenüber C. albicans” value (Candida albicans; 50µg/mL) of the same compound?
A: -

Q: What about the inhibition of growth at 5 µg/mL (Botrytis cinerea; 5µg/mL) of the same compound?
A: 0 to 25%

Q: What about the inhibition of growth at 10 µg/mL (Botrytis cinerea; 10µg/mL) of the same compound?
A: 0 to 25%

Q: And the inhibition of growth at 25 µg/mL (Botrytis cinerea; 25µg/mL)?
A: 0 to 25%

Q: What about the inhibition of growth at 50 µg/mL (Botrytis cinerea; 50µg/mL) of the same compound?
A: 0 to 25%

Q: What about the “Aktivität gegenüber P. variotii” value (Paecilomyces variotii; 10µg/mL) of the same compound?
A: -

Q: And the “Aktivität gegenüber P. variotii” value (Paecilomyces variotii; 50µg/mL)?
A: -

Q: And the “Aktivität gegenüber Nutzpflanzen: L. sativum” value (Lepidium sativum; 10µg/R)?
A: - (weniger als 75 % Wachstumshemmung im Vergleich zur Kontrolle)

Q: What about the “Aktivität gegenüber Nutzpflanzen: L. sativum” value (Lepidium sativum; 20µg/R) of the same compound?
A: - (weniger als 75 % Wachstumshemmung im Vergleich zur Kontrolle)

Q: And the “Aktivität gegenüber Nutzpflanzen: L. sativum” value (Lepidium sativum; 50µg/R)?
A: - (weniger als 75 % Wachstumshemmung im Vergleich zur Kontrolle)

Q: What about the “Aktivität gegenüber Nutzpflanzen: S. italica” value (Setaria italica; 10µg/R) of the same compound?
A: - (weniger als 75 % Wachstumshemmung im Vergleich zur Kontrolle)

Q: And the “Aktivität gegenüber Nutzpflanzen: S. italica” value (Setaria italica; 20µg/R)?
A: - (weniger als 75 % Wachstumshemmung im Vergleich zur Kontrolle)

Q: And the “Aktivität gegenüber Nutzpflanzen: S. italica” value (Setaria italica; 50µg/R)?
A: + (mind. 75 % Wachstumshemmung im Vergleich zur Kontrolle)
